Results published in PMC3885398, “Evaluation of the Antitumor Effects of BPR1J-340, a Potent and Selective FLT3 Inhibitor, Alone or in Combination with an HDAC Inhibitor, Vorinostat, in AML Cancer” (PLoS ONE, 2014).

Experiments:
MOLM-13 tumor xenograft = test system: MOLM-13 tumor xenograft; design: method as in PMID 22187040; settings: 25 mg/kg, same MOLM-13 model; cited from earlier work
MOLM-13 cells = assay: Apoptosis assay, Annexin V-FITC/PI flow cytometry; assay type: cell-based, human; settings: MOLM-13 (FLT3-ITD-expressing cells), 300 nM, 48 hours
Method: (§1) The number of apoptotic cells was determined by fluorescence-activated cell sorting (FACS) analyses using Annexin V-FITC staining. In brief, cells were centrifuged after drug treatment and resuspended in 1× binding buffer containing 2.5 mM of calcium (Ca2+). Cells were incubated with Annexin V-FITC (Biolegend, San Diego, CA) and propidium iodide (PI) (Sigma–Aldrich, St. Louis, MO) in the dark at room temperature for 20 minutes. Next, samples were reconstituted with 1× binding buffer and subjected to flow cytometry FACS Calibus (BD Bioscience, Franklin Lakes, NJ) to analyze the Annexin V-positive population using CellQuest Pro (BD Bioscience) and FlowJo (Treestar, Inc., San Carlos, CA).
(§2) Some histone deacetylase inhibitors (HDACi) will enhance the cytotoxic activity of FLT3 inhibitor on FLT3-ITD^+ cell via degradation of FLT3-ITD and STAT5 [24], [26], [36], [37]. […]
(§3) Figure 4 The effect of BPR1J-340 and SAHA versus drug combination on AML FLT3-ITD+ cells. […] (A) Viable cells were counted after staining with trypan blue dye at indicated time point (B) At 48-hours after treatment, cells were stained with FITC-labeled annexin V and propidium iodide and percentages of apoptotic cells were analyzed by flow cytometry. […]

MV4;11 cells = assay: Apoptosis assay, Annexin V-FITC/PI flow cytometry; assay type: cell-based, human; settings: MV4;11 (FLT3-ITD-expressing cells), 300 nM, 48 hours
Method: as §1, §2, §3

Row | Compound | CR, animals (MOLM-13 tumor xenograft) | rate of apoptotic cells versus control (MOLM-13 cells) | rate of apoptotic cells versus control (MV4;11 cells)
1 | CN1CCN(c2ccc(C(=O)Nc3cc(-c4cccc(NS(=O)(=O)c5ccccc5)c4)n[nH]3)cc2)CC1 [BPR1J-097, N1-(3-3-[(phenylsulfonyl)amino]phenyl-1H-5-pyrazolyl)-4-(4-methylpiperazino)benzamide] | 1/8 |  | 
2 | O=C(CCCCCCC(=O)Nc1ccccc1)NO [SAHA, vorinostat] |  | did not increase | did not increase
